Data on four compounds can be found in patent US20130085150A1, “ANALOGUES FOR THE TREATMENT OR PREVENTION OF FLAVIVIRUS INFECTIONS” (Vertex Pharmaceuticals Incorporated, priority 2010, published 2013).

The assay has as its system HCV (Ib) RNA replication, Huh-ET replicon cells. The assay can be described thus: Cell-based luciferase reporter HCV (Ib) RNA replication assay. The note with it: Hepatitis C virus, 96 h. For orientation: A reporter such as luciferase makes a cellular process visible.
Setting [1] is: HCV 1b replicon, luciferase, 4 days, read-out: EC50_ib.

Read-outs that look alike come from different tables or passages of the source.

Excerpt: Cell-Based Luciferase Reporter HCV (Ib) RNA Replication Assay Cell Culture
This cell line allows measurement of HCV RNA replication and translation by measuring luciferase activity. […] The Huh-ET cell line has the same features as those mentioned for Huh-5.2 cell line, except that ET cells are more robust and contain an adaptative mutation in the HCV NS4B gene instead of NS5A. Both cell lines are maintained in cultures at a sub-confluent level (<85%) as the level of replicon RNA is highest in actively proliferating cells. The culture media used for cell passaging consist of DMEM (Gibco BRL Laboratories, Mississauga, ON, Canada) supplemented with 10% foetal bovine serum with 1% penicilin/streptomycin, 1% glutamine, 1% sodium pyruvate, 1% non-essential amino acids, and 180 μg/ml of G418 final concentration. Cells are incubated at 37° C., in an atmosphere of 5% CO2 and passaged twice a week to maintain sub-confluence.
Approximately 3000 viable Huh-ET cells (100 μl) are plated per well in a white opaque 96-well microtiter plate. The cell culture media used for the assay is the same as described above except that it contains no G418 and no phenol red. After an incubation period of 3-4 hours at 37° C. in a 5% CO2 incubator, compounds (100 μl) are added at various concentrations. Cells are then further incubated for 4 days at 37° C. in a 5% CO2 incubator. Thereafter, the culture media is removed and cells are lysed by the addition of 95 μL of the luciferase buffer (luciferin substrate in buffered detergent). Cell lysates are incubated at room temperature and protected from direct light for at least 10 minutes. Plates are read for luciferase counts using a luminometer (Wallac MicroBeta Trilux, Perkin Elmer™, MA, USA).
Curves are fitted to data points using nonlinear regression analysis, and IC50s are interpolated from the resulting curve using GraphPad Prism software, version 2.0 (GraphPad Software Inc., San Diego, Calif., USA).

Turning to `CCCCN(Cc1nc2cc(C#Cc3ccc4[nH]c(C(=O)NC5CC5)cc4c3)ccc2[nH]1)C(=O)OCc1ccccc1` [Compound 1], under setting [1], the EC50 fell in the range of 0.005 to 5 µM. The same measure, in the same setting: with `CC(C)(C)OC(=O)N1CCC[C@@H]1c1cn2cc(-c3ccc(-c4ccc5nc([C@H]6CCCN6C(=O)OC(C)(C)C)cn5c4)cc3)ccc2n1` [Compound 2] the figure was 0.005 to 5 µM; with `c1cc(-c2ccc3nc([C@H]4CCCN4)cn3c2)ccc1-c1ccc2nc([C@H]3CCCN3)cn2c1` [Compound 3], 0.005 to 5 µM. In the case of `COC(=O)N[C@H](C(=O)N1C[C@@H](C)CC1c1nc2cc(-c3ccc(-c4ccc5nc(C6C[C@H](C)CN6C(=O)[C@@H](NC(=O)OC)C(C)C)oc5c4)cc3)ccc2[nH]1)C(C)C` (stereo partly shown) [Compound 47], the EC50 (read-out: EC50_ib (uM)) is less than 0.005 µM.
